Results reported in patent publication US10981926B2 (Janssen Pharmaceutica NV, priority 2016, dated 2021).
Read-outs that look alike come from different tables or passages of the source.

Experiments:
Assay type in all cases: cell-based
[1] = biological target: T1, wild-type Androgen Receptor (AR-wt) (Homo sapiens (Human), UniProt P10275); test: LNCaP-AR-wt ANT reporter assay (antagonist mode); conditions: for Emax: read-out: LNCaP-AR-wt ANT MAX % Inh
[2] = biological target: T1, wild-type Androgen Receptor (AR-wt); test: LNCaP-AR-wt AG reporter assay (agonist mode); conditions: for Emax: read-out: LNCaP-AR-wt AG MAX % Stim
[3] = biological target: T2, F876L mutant Androgen Receptor (AR-F876L) (Homo sapiens (Human), UniProt P10275, F877L); test: LNCaP-AR-F876L ANT reporter assay (antagonist mode); conditions: for Emax: read-out: LNCaP-AR-F876L ANT MAX % Inh
[4] = biological target: T2, F876L mutant Androgen Receptor (AR-F876L); test: LNCaP-AR-F876L AG reporter assay (agonist mode); conditions: for Emax: read-out: LNCaP-AR-F876L AG MAX % Stim
[5] = antagonist mode, pIC50 = −Log10(IC50 in Molar), read-out: LNCaP-AR-wt ANT pIC50 (converted)
[6] = maximum % inhibition of R1881 control response over the tested concentration range
[7] = agonist mode, pEC50 = −Log10(EC50 in Molar), read-out: LNCaP-AR-wt AG pEC50 (converted)
[8] = maximum % stimulation (agonist response) over the tested concentration range
[9] = antagonist mode, pIC50 = −Log10(IC50 in Molar), read-out: LNCaP-AR-F876L ANT pIC50 (converted)
[10] = agonist mode, pEC50 = −Log10(EC50 in Molar), read-out: LNCaP-AR-F876L AG pEC50 (converted)
[11] = antagonist mode, maximum % inhibition of R1881 control response over tested concentration range
[12] = agonist mode, maximum % stimulation over tested concentration range

T1 sequence (P10275 whole entry): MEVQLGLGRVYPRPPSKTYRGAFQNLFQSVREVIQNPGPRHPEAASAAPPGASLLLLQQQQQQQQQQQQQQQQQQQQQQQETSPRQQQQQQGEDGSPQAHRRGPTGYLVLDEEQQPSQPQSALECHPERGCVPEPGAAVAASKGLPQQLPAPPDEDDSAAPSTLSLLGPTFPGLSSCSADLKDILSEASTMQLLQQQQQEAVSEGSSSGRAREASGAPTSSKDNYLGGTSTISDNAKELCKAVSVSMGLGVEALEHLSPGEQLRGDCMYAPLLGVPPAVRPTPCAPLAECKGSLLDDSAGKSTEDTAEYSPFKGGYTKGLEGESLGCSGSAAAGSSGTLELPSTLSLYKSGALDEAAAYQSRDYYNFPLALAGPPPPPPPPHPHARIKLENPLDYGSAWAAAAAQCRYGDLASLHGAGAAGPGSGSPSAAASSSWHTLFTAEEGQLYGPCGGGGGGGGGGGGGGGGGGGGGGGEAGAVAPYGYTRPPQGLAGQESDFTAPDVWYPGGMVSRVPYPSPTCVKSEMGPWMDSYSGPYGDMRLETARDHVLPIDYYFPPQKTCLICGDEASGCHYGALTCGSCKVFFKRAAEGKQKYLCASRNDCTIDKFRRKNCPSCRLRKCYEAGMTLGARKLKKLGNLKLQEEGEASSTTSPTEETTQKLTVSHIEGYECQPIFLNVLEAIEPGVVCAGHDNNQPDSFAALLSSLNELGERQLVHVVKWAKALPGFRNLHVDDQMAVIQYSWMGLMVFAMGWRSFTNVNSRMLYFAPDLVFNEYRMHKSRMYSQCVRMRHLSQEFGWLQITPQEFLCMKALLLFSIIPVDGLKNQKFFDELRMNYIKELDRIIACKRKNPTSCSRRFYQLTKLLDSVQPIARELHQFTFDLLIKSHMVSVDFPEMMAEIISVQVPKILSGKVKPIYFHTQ
T2 sequence (P10275 whole entry F877L): as the sequence (P10275 whole entry) above, with F877L counted along it

| SMILES | IC50 [1, 5] | Emax [1, 6] | EC50 [2, 7] | Emax [2, 8] | IC50 [3, 9] | Emax [3, 6] | EC50 [4, 10] | Emax [4, 8] | Emax [1, 11] | Emax [2, 12] | Emax [3, 11] | Emax [4, 12] | IC50 ([1]; LNCaP-AR-wt ANT pIC50) | Emax [1] | EC50 [2] | Emax [2] | IC50 ([3]; LNCaP-AR-F876L ANT pIC50) | Emax [3] | EC50 [4] | Emax [4] |
| --- | --- | --- | --- | --- | --- | --- | --- | --- | --- | --- | --- | --- | --- | --- | --- | --- | --- | --- | --- | --- |
| CN1CC2CC1CC2Oc1ccc(N2C(=S)N(c3cnc(C#N)c(C(F)(F)F)c3)C(=O)C23CCC3)cn1 [Cpd 177, (R,S)-5-[8-[6-[(2-methyl-2-azabicyclo[2.2.1]heptan-5-yl)oxy]-3-pyridyl]-5-oxo-7-thioxo-6,8-diazaspiro[3.4]octan-6-yl]-3-(trifluoromethyl)pyridine-2-carbonitrile] | 0.525 µM | 102% | > 15.1 µM | 0.2% | 0.457 µM | 100% | > 15.1 µM | 0.4% | – | – | – | – | – | – | – | – | – | – | – | – |
| COCCn1cc2ccc(N3C(=S)N(c4cnc(C#N)c(C(F)(F)F)c4)C(=O)C34CCC4)cc2n1 [Cpd 179, 5-[8-[2-(2-methoxyethyl)indazol-6-yl]-5-oxo-7-thioxo-6,8-diazaspiro[3.4]octan-6-yl]-3-(trifluoromethyl)pyridine-2-carbonitrile] | 1.23 µM | 100% | > 15.1 µM | -0.2% | 0.468 µM | 101% | > 15.1 µM | -0.2% | – | – | – | – | – | – | – | – | – | – | – | – |
| N#Cc1ncc(N2C(=O)C3(CCC3)N(c3ccc4c(cnn4C4CCNCC4)c3)C2=S)cc1Cl [Cpd 182, 3-chloro-5-[5-oxo-8-[1-(4-piperidyl)indazol-5-yl]-7-thioxo-6,8-diazaspiro[3.4]octan-6-yl]pyridine-2-carbonitrile] | 0.55 µM | 103% | > 15.1 µM | 0% | 0.191 µM | 102% | > 15.1 µM | 0.1% | – | – | – | – | – | – | – | – | – | – | – | – |
| CN1CCC[C@H](CNC(=O)c2ccc(N3C(=S)N(c4cnc(C#N)c(C(F)(F)F)c4)C(=O)C34CCC4)cc2)C1 [Cpd 184, 4-[6-[6-cyano-5-(trifluoromethyl)-3-pyridyl]-5-oxo-7-thioxo-6,8-diazaspiro[3.4]octan-8-yl]-N-[[(3R)-1-methyl-3-piperidyl]methyl]benzamide] | 0.813 µM | 100% | > 15.1 µM | 0.2% | 0.447 µM | 99.6% | > 15.1 µM | 0.4% | – | – | – | – | – | – | – | – | – | – | – | – |
| CN1CCC[C@@H](CNC(=O)c2ccc(N3C(=S)N(c4cnc(C#N)c(C(F)(F)F)c4)C(=O)C34CCC4)cc2)C1 [Cpd 185, 4-[6-[6-cyano-5-(trifluoromethyl)-3-pyridyl]-5-oxo-7-thioxo-6,8-diazaspiro[3.4]octan-8-yl]-N-[[(3S)-1-methyl-3-piperidyl]methyl]benzamide] | 0.708 µM | – | > 15.1 µM | – | 0.427 µM | – | > 15.1 µM | – | 102% | 0.2% | 102% | 0.8% | – | – | – | – | – | – | – | – |
| N#Cc1ncc(N2C(=O)C3(CCC3)N(c3ccc(C(=O)NC[C@@H]4CCCNC4)cc3)C2=S)cc1C(F)(F)F [Cpd 186, 4-[6-[6-cyano-5-(trifluoromethyl)-3-pyridyl]-5-oxo-7-thioxo-6,8-diazaspiro[3.4]octan-8-yl]-N-[[(3R)-3-piperidyl]methyl]benzamide] | 3.16 µM | – | > 15.1 µM | – | 2.24 µM | – | > 15.1 µM | – | 99.8% | 0.1% | 100% | 0% | – | – | – | – | – | – | – | – |
| CN1CC[C@@H](CNC(=O)c2ccc(N3C(=S)N(c4cnc(C#N)c(C(F)(F)F)c4)C(=O)C34CCC4)cc2)C1 [Cpd 187, 4-[6-[6-cyano-5-(trifluoromethyl)-3-pyridyl]-5-oxo-7-thioxo-6,8-diazaspiro[3.4]octan-8-yl]-N-[[(3S)-1-methylpyrrolidin-3-yl]methyl]benzamide] | 1.26 µM | – | > 15.1 µM | – | 0.513 µM | – | > 15.1 µM | – | 101% | 0.3% | 101% | 0.2% | – | – | – | – | – | – | – | – |
| C[N@+]1([O-])CC[C@H](Oc2ccc(N3C(=S)N(c4cnc(C#N)c(C(F)(F)F)c4)C(=O)C34CCC4)cc2)CC1 [Cpd 190, 5-[8-[4-(1-methyl-1-oxido-piperidin-1-ium-4-yl)oxyphenyl]-5-oxo-7-thioxo-6,8-diazaspiro[3.4]octan-6-yl]-3-(trifluoromethyl)pyridine-2-carbonitrile] | 3.02 µM | – | > 15.1 µM | – | 1.66 µM | – | > 15.1 µM | – | 95.3% | -0.1% | 97.4% | 0.1% | – | – | – | – | – | – | – | – |
| CN1CCC(NC(=O)c2ccc(N3C(=S)N(c4cnc(C#N)c(C(F)(F)F)c4)C(=O)C34CCC4)cc2)C1 (centres unmarked) [Cpd 192, 4-[6-[6-cyano-5-(trifluoromethyl)-3-pyridyl]-5-oxo-7-thioxo-6,8-diazaspiro[3.4]octan-8-yl]-N-(1-methylpyrrolidin-3-yl)benzamide] | 1.58 µM | – | > 15.1 µM | – | 0.692 µM | – | > 15.1 µM | – | 101% | 0% | 102% | 0.1% | – | – | – | – | – | – | – | – |
| CN1CCC12CC(Oc1ccc(N3C(=S)N(c4cnc(C#N)c(C(F)(F)F)c4)C(=O)C34CCC4)cn1)C2 (centres unmarked) [Cpd 193, 5-[8-[6-[(3-methyl-3-azaspiro[3.3]heptan-6-yl)oxy]-3-pyridyl]-5-oxo-7-thioxo-6,8-diazaspiro[3.4]octan-6-yl]-3-(trifluoromethyl)pyridine-2-carbonitrile] | 0.229 µM | – | > 15.1 µM | – | 0.191 µM | – | > 15.1 µM | – | 101% | 0.1% | 101% | 0.4% | – | – | – | – | – | – | – | – |
| CN(C(=O)OC(C)(C)C)C1(COc2ccc(N3C(=S)N(c4cnc(C#N)c(C(F)(F)F)c4)C(=O)C34CCC4)cc2)COC1 [Cpd 196, tert-butyl N-[3-[[4-[6-[6-cyano-5-(trifluoromethyl)-3-pyridyl]-5-oxo-7-thioxo-6,8-diazaspiro[3.4]octan-8-yl]phenoxy]methyl]oxetan-3-yl]-N-methyl-carbamate] | 0.589 µM | – | > 15.1 µM | – | 0.437 µM | – | > 15.1 µM | – | 100% | -0.2% | 99.9% | 0.2% | – | – | – | – | – | – | – | – |
| CN(C)C1(c2ccc(N3C(=S)N(c4cnc(C#N)c(C(F)(F)F)c4)C(=O)C34CCC4)cc2)COC1 [Cpd 197, 5-(5-(4-(3-(dimethylamino)oxetan-3-yl)phenyl)-8-oxo-6-thioxo-5,7-diazaspiro[3.4]octan-7-yl)-3-(trifluoromethyl)picolinonitrile] | – | – | – | – | – | – | – | – | – | – | – | – | 1.07 µM | 99.3% | > 15.1 µM | 0.1% | 0.447 µM | 101% | > 15.1 µM | 0.3% |
| CC(=O)N1CCC(n2cc3ccc(N4C(=S)N(c5cnc(C#N)c(C(F)(F)F)c5)C(=O)C45CCC5)cc3n2)CC1 [Cpd 198, 5-[8-[2-(1-acetyl-4-piperidyl)indazol-6-yl]-5-oxo-7-thioxo-6,8-diazaspiro[3.4]octan-6-yl]-3-(trifluoromethyl)pyridine-2-carbonitrile] | 0.562 µM | – | > 15.1 µM | – | 0.562 µM | – | > 15.1 µM | – | 102% | 0.1% | 102% | 0.1% | – | – | – | – | – | – | – | – |
| CN1CCC(n2cc3ccc(N4C(=S)N(c5cnc(C#N)c(C(F)(F)F)c5)C(=O)C45CCC5)cc3n2)CC1 [Cpd 199, 5-[8-[2-(1-methyl-4-piperidyl)indazol-6-yl]-5-oxo-7-thioxo-6,8-diazaspiro[3.4]octan-6-yl]-3-(trifluoromethyl)pyridine-2-carbonitrile] | 1.62 µM | – | > 15.1 µM | – | 1.51 µM | – | > 15.1 µM | – | 88.9% | -0.2% | 102% | 0.9% | – | – | – | – | – | – | – | – |
| CN1CCC[C@@H](CNC(=O)c2ccc(N3C(=S)N(c4cnc(C#N)c(C(F)(F)F)c4)C(=O)C34CCC4)cc2F)C1 [Cpd 200, 4-[6-[6-cyano-5-(trifluoromethyl)-3-pyridyl]-5-oxo-7-thioxo-6,8-diazaspiro[3.4]octan-8-yl]-2-fluoro-N-[[(3S)-1-methyl-3-piperidyl]methyl]benzamide] | 0.708 µM | – | > 15.1 µM | – | 0.794 µM | – | > 15.1 µM | – | 99.6% | 0.4% | 99.1% | 0.5% | – | – | – | – | – | – | – | – |
| CN1CCC(CNC(=O)c2ccc(N3C(=S)N(c4cnc(C#N)c(C(F)(F)F)c4)C(=O)C34CCC4)cc2F)CC1 [Cpd 201, 4-[6-[6-cyano-5-(trifluoromethyl)-3-pyridyl]-5-oxo-7-thioxo-6,8-diazaspiro[3.4]octan-8-yl]-2-fluoro-N-[(1-methyl-4-piperidyl)methyl]benzamide] | 0.355 µM | – | > 15.1 µM | – | 0.214 µM | – | > 15.1 µM | – | 101% | -0.3% | 101% | 0% | – | – | – | – | – | – | – | – |
